What all share (format): in vivo
Assay [1] has as its system microglia. Nature of the assay: Functional profile of microglia in 6-OHDA rat models after prophylactic administration. The conditions noted are these: prophylactic i.p. As to the method:
Methods: Adult mature rodents were used in the study. […] Before prophylactic administration of the experimental drugs, the animals underwent an open field test to assay their general locomotor activity levels and anxiety. The prophylactic course consisted of 10 daily intraperitoneal injections of the drugs (in the case of combination drug, its components were administered at an interval of 2 hours). After the end of prophylactic course, Parkinson's disease was modelled in the animals. […] Ten days after the last (second) apomorphine test, the animals' behavioral responses were assessed in the open field test followed by euthanasia and analysis of functional (metabolic and phenotypic) profiles of phagocytes of different localization. Thus, the study of the functional profile of phagocytes in rat models of Parkinson's disease was performed on day 28 after the end of the course of prophylactic treatment with the experimental drugs. Resident peritoneal macrophages were isolated from sterile cell suspension of peritoneal exudate; enrichment of the suspension was carried out by 2-hour adhesion. Non-adherent and dead cells were separated by centrifugation. Functional characteristics of circulating phagocytes (monocytes and neutrophils) were evaluated in whole blood taken into a tube containing EDTA used as an anticoagulant. Mononuclear and polymorphonuclear phagocytes were analyzed on a flow cytofluorimeter using a gating method. Phagocytes of microglia were isolated using a Percoll density gradient. To assess the phenotypic profile of phagocytes, expression indices of the pan-phagocytic marker CD14 (co-receptor of the bacterial lipopolysaccharide) and the marker of alternative polarization of phagocytes CD206 (mannose receptor 1) were used. To characterize the metabolic profile, oxidative metabolism and phagocytic activity of microglia as well as the pathway of arginine metabolism were studied using flow cytometry and spectrometric methods respectively. FITC-labeled Staphylococcus aureus Wood 46 was used as the object of phagocytosis. The hemogram parameters were analyzed on the hematological analyzer Particle counter model PCE 210 (ERMA, Japan) adapted for the study of blood cells of rats and mice.

Assay [2] has as its system LPS rat models of Parkinson's disease. The experiment in a line: Elevated plus maze. An excerpt:
Method. The elevated plus maze is a widely used behavioral assay for rodents that makes it possible to assess sedative or anxiogenic effects of agents and to define mechanisms underlying anxiety-related behavior, as well as to evaluate the motor activity of rats and levels of their exploratory activity that may correlate with the data collected in the open field test. Campos A C, et al., Braz J Psychiatry. 2013; 35 Suppl 2:S101-11. doi: 10.1590/1516-4446-2013-1139; Braun A A, et al., Neurobiol Learn Mem. 2012; 97(4):402-8. doi: 10.1016/j.nlm.2012.03.004). Behavior was assessed according to the following main parameters: the total distance travelled, the number of entries into each arm, the time spent in each arm, the total number of entries and percent of entries. […] Throughout the experiment, animals had free access to food and water. Before starting measurements, animals were given time to adapt to new an environment to reduce stress.
The entire apparatus was elevated 50 cm above the floor. The central part of the junction was a 10 cm square center region where an animal was started facing an open arm. The apparatus was illuminated by two LED bulbs, 60 watts each, hanging at a height of 2 m. An IP camera was used to record the location of rats and scoring was completed later using the MATLAB-based software. The statistical analysis was performed using GraphPad Prism. Significance was set at <0.005. The data collected from the open field were analyzed using One-way ANOVA (Tukey test or Dunnett test) and Unpaired t-test or Mann-Whitney.
Data analysis and interpretation. The test is based on the natural aversion of rats for open areas and their preference for closed areas of the apparatus. The levels of anxiety in animals are assessed as the total time spent in the open and closed arms. Animals that spend more time in the open arms have lower levels of anxiety compared to animals that prefer closed arms. In addition, like in an open field test, a novel environment in which an animal finds itself evokes conflict between fear and a desire to explore this environment. Therefore, the data collected from these two tests may correlate in the distance travelled and the time spent in the outer and inner perimeter. It is considered normal if during a 5-minute test, animals spend most of their time in the closed arms but also make a few entries to the open arms to explore. Accordingly, an increase in open arm entries is interpreted as a decreased anxiety in the animal. FIG. 51A and FIG. 51B show an example of analysis of a rat trajectory in the experimental arena.
On the 1st day of the experiment, rats were either operated to model hemi-parkinsonism or sham operated. From the 9th to the 18th day of the experiment, the animals were injected either deuterium-depleted water or the test substance, according to their allocation into groups, for 10 days. On the 8th day of the experiment (before initiation of treatment—apomorphine test I) and on the 21st day of the experiment (after the end of administering the test substance —apomorphine test II) the animals underwent an apomorphine test to analyze the development of hemi-parkinsonism which correlates with the number of destroyed dopaminergic neurons. In addition, a follow-up analysis of fecal water content was carried out, i.e., before the start of treatment on the 8th day after the operation, as well as on the 21st (after the end of treatment) and the 28th day (before autopsy). On the 24th day of the experiment, behavioral tests were carried out in all groups. All animals were weighed before autopsy.

Assay [3] concerns circulating phagocytes (monocytes and neutrophils). Nature of the assay: Hemogram and functional profile of circulating phagocytes in 6-OHDA rat models after prophylactic administration. The note with it: prophylactic i.p. The method, then:
Methods: Adult mature rodents were used in the study. […] Before prophylactic administration of the experimental drugs, the animals underwent an open field test to assay their general locomotor activity levels and anxiety. The prophylactic course consisted of 10 daily intraperitoneal injections of the drugs (in the case of combination drug, its components were administered at an interval of 2 hours). After the end of prophylactic course, Parkinson's disease was modelled in the animals. […] Ten days after the last (second) apomorphine test, the animals' behavioral responses were assessed in the open field test followed by euthanasia and analysis of functional (metabolic and phenotypic) profiles of phagocytes of different localization. Thus, the study of the functional profile of phagocytes in rat models of Parkinson's disease was performed on day 28 after the end of the course of prophylactic treatment with the experimental drugs. […] Functional characteristics of circulating phagocytes (monocytes and neutrophils) were evaluated in whole blood taken into a tube containing EDTA used as an anticoagulant. Mononuclear and polymorphonuclear phagocytes were analyzed on a flow cytofluorimeter using a gating method. […] The hemogram parameters were analyzed on the hematological analyzer Particle counter model PCE 210 (ERMA, Japan) adapted for the study of blood cells of rats and mice.

In the case of “^64Zn-enriched zinc aspartate [^64Zne-asp]”, in assay [1], the “level of CD14 expression in microglia” value was “increase”; the “level of CD206 expression in microglia” value was “increase”; the “oxidative metabolism / ROS production of microglia versus intact animals” value was “at the level of control intact animals”; the “oxidative metabolism of microglia, higher than in control rat models of Parkinson's disease” value is “twice”. Besides, in assay [2] (LPS + ^64Zn-asp, Gr. V), the “Number of entries into closed arms” value was 6.1 ± 8.279, the “Number of entries into open arms” value amounted to 6.1 ± 8.279, the “Time spent in closed arms” value worked out at 243.3 ± 54.2 s and the “Time spent in open arms” value is recorded as 17.55 ± 24.48 s. Besides, in assay [2] (LPS + ^64Zn-asp, Gr. V), the “Total distance travelled, cm” value amounted to 396.8 ± 107.7 cm and the “Total number of entries” value worked out at 13 ± 16.66. Besides, the “behavioral parameters in the elevated plus maze (in words)” value in assay [2] (group V (LPS+^64Zn-asp) versus group IV (LPS)) is on record as “had not produced any effects”. In assay [2] (group V versus group IV (LPS)), the “increase of number of entries” value came out at 1.3 times and the “increase of total distance travelled” value worked out at 1.2 times. In addition, in assay [3], the “oxidative metabolism in circulating neutrophils” value was “absence of any disturbances” and the “phagocytic activity of circulating monocytes” value is “did not differ from that of intact animals”.

The record behind these values is patent US11779597B2, “Method of treating Parkinson's and other neurodegenerative diseases” (Vector Vitale IP LLC, priority 2019, dated 2023).
